Reference: patent US6680344B1, “Method of treating hair loss using diphenylmethane derivatives” (The University of Texas Southwestern Medical Center, priority 1999, dated 2004)

Tested on: heart/body weight ratio of male Sprague Dawley rats
Assay: Cardiotoxicity assay (heart-to-body weight ratio)
Assay type: in vivo, rat
Conditions: 250 μg/kg subcutaneously once daily for 28 days, cardiac-sparing where C is less than 1.3
Text: The cardiotoxicity assay measures the potential of a test compound to adversely affect the cardiovascular system. As thyroid hormone (T3) damages the cardiovascular system, the heart enlarges. See, e.g., Gomberg-Maitland et al., “Thyroid hormone and Cardiovascular Disease”, American Heart Journal, Vol. 135(2), pp. 187-196 (1998); Klein and Ojamaa, “Thyroid Hormone and the Cardiovascular System”, Current Opinion in Endocrinology and Diabetes, Vol. 4, pp.341-346 (1997); and Klemperer et al., “Thyroid Hormone Therapy and Cardiovascular Disease”, Progress in Cardiovascular Diseases, Vol. 37 (4), pp. 329-336 (1996). This increases the weight of the heart relative to whole body weight. The cardiotoxicity assay herein below is used to test compounds for potentially adverse cardiac effects by measuring their effect on the heart-to-body weight ratio.
Two groups each of six male Sprague Dawley rats (Harlan Sprague Dawley, Inc., Indianapolis, Ind.) (each weighing from approximately 220 grams to 235 grams) are utilized. The first group is a vehicle control group and the second group is a test compound group. The length of the assay is 30 days, with treatment of vehicle or test compound in vehicle daily for 28 of those days as described below.
Prior to initiation of the assay, each rat is allowed to acclimate to standard environmental conditions for 5 days. […]

N[C@@H](Cc1cc(I)c(Oc2cc(I)c(O)c(I)c2)c(I)c1)C(=O)O [T4, thyroxine]
cardiac-sparing classification (index C = RT/RV, heart/body ratio of test compound group over vehicle control group): not cardiac-sparing
